Legend:
CYP3A = assay: CYP450 phenotyping in HLMs with CYP3A inhibitor ketoconazole; type: in vitro ADME, human; settings: 90‐minute HLM incubation with CYP3A4 inhibitor ketoconazole (1 μM)
Description: (§1) Metabolic stability in human liver microsomes (HLMs) and cytochrome P450 (CYP450) phenotyping assays were conducted in 3D BioOptima (Suzhou, China) using validated methodology, [13] to determine the intrinsic clearance and enzymes responsible for metabolism of pamiparib. HLMs for microsome stability was from BD Biosciences (Woburn, New York). For phenotyping, HLMs and recombinant P450 (rCYP) were from Corning (Woburn, New York). Pamiparib (1 μM) was incubated with pooled HLM (0.5 mg/mL), NADPH (1 mM), and MgCl2 (3 mM) terminated at 0, 5, 15, 30, 60, and 90 minutes. The intrinsic clearance was calculated as 0.693/(t1/2 × HLM concentration), where t1/2 is the half‐life of pamiparib determined in HLMs. For phenotyping in HLMs, pamiparib (1 μM) was incubated in the absence or presence of isoform‐selective inhibitors: 0.2 μM α‐naphthoflavone for CYP1A2, 2 μM clopidogrel for CYP2B6, 16 μM montelukast for CYP2C8, 10 μM sulfaphenazole for CYP2C9, 30 μM nootkatone for CYP2C19, 2 μM quinidine for CYP2D6, and 1 μM ketoconazole for CYP3A. The following isoform‐selective probe substrates served as positive controls: 40 μM phenacetin for CYP1A2, 100 μM bupropion for CYP2B6, 2 μM amodiaquine for CYP2C8, 5 μM diclofenac for CYP2C9, 40 μM S‐mephenytoin for CYP2C19, 5 μM dextromethorphan for CYP2D6, and 2 μM midazolam for CYP3A4. […] Pamiparib, M1, and M2 were analyzed by LC‐MS/MS.

PARP1 = test system: PARP1; set-up: method as in PMID 33264017; settings: read-out: PARP1 inhibition IC50; cited from earlier work
CYP2C8 = biological target: T1, CYP2C8 (Homo sapiens, UniProt P10632); assay: CYP450 phenotyping in HLMs with CYP2C8 inhibitor montelukast; type: in vitro ADME; settings: 90‐minute HLM incubation with CYP2C8 inhibitor montelukast (16 μM)
T1 construct: tissue Corning (Woburn, New York); host or cells: pooled human liver microsomes
T1 sequence (P10632 1-490): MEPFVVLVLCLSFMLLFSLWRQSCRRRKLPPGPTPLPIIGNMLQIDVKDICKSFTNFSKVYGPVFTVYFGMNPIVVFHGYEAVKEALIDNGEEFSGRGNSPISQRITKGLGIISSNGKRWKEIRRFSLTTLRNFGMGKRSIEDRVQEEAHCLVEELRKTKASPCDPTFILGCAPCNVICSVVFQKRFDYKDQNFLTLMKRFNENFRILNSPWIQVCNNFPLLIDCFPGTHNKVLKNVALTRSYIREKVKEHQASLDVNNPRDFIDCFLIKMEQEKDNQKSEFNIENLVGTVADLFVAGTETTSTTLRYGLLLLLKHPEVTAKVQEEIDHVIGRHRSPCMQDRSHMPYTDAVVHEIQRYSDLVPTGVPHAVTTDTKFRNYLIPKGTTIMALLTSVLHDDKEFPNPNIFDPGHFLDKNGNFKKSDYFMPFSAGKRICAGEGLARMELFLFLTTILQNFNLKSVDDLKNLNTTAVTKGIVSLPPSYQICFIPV
Description: as §1

[1] = metabolite profiling in pooled feces (radioprofiling, LC‐MS); type: in vivo, human; settings: pooled feces
Description: Total radioactivity concentrations of [^14C]‐pamiparib in whole blood, plasma, urine, and feces were determined by liquid scintillation counting (LSC). Radioactivity in each sample was measured for 5 minutes using a Packard Tri‐Carb liquid scintillation counter model 2100TR, 2900TR, or 3100TR (Canberra Packard, Pangbourne, Berks, Australia) with the facilities for computing quench‐corrected disintegrations per minute. Metabolite identification in plasma, urine, and feces was conducted by LC‐MS. Quantitation of the metabolites present in plasma, urine, and feces was based on the profiles of radioactivity. The limit of quantitation for radioactivity in plasma, urine, and feces was set at 1% of each chromatographic analysis (run) and 10 counts per minute (cpm) peak height; therefore, radioactive peaks that were <1% of the total run or <10 cpm peak height were reported as not detected. In addition, pamiparib and standards were reported, regardless of the percentage of run or peak height.
Portions of fecal homogenates (about 200‐500 mg) were subjected to combustion analysis prior to LSC. For metabolite profiling, feces samples collected 0‐24, 24‐48, 48‐72, 72‐96, and 96‐120 hours postdose were pooled by individual patient to generate 0‐ to 120‐hour pooled samples including 0.5% of each sample by weight. Feces were pooled per patient (if required) according to the appropriate 24‐hour collection period. The samples were homogenized in deionized water, avoiding excessive dilution (data on file). The radioactivity in each pooled sample was determined by LSC. The total amount of feces collected was factored into the recovery calculation. Approximately 1.6 to 2.7 g of each pooled feces sample was extracted twice with 6 mL of 0.1% formic acid in ACN. […] The combined supernatants were evaporated to dryness under nitrogen and reconstituted in 300 μL of MeOH. […] The reconstituted samples were analyzed by LC‐MS, with eluent fractions collected, and radiochemical profiles were generated based on radioactivity counts. […]

[2] = set-up: method as in PMID 32652442; settings: after oral administration in mice; cited from earlier work

In the case of C[C@]12CCCN1CC1=NNC(=O)c3cc(F)cc4[nH]c2c1c34 [Pamiparib], the pamiparib remaining (CYP3A) is given as 63.1%, the IC50 (PARP1) is given as 1.3 nM and the pamiparib remaining (CYP2C8) is given as 82.9%. The “dose quantified in feces” value [1] was 17.5 % of the dose and the brain penetrance [2] was “brain penetrance”.
